# Assay results reported in article PMC11227536, “Modulation of the Meisenheimer complex metabolism of nitro-benzothiazinones by targeted C-6 substitution” (Communications Chemistry, 2024).
# Tested on: RAW 264.7 cells
# Assay: Hydride Meisenheimer complex (HMC) formation propensity assay, whole cell
# Type: in vitro ADME, murine
# Conditions: whole cell in vitro assay, relative to BTZ-043 (1)
# Text: As the main goal of our work, we focused on the impact of C-6 substituents on the propensity to form HMC in our recently developed whole cell in vitro assay. Following our standardized protocol, all measurements were normalized relative to BTZ-043 (1). Obtained HMC formation propensities (Table S5) were transformed into their negative decadic logarithm (pHMC) to ease data visualization and subsequent processing during chemoinformatics investigations (Fig. 5). […] In the case of esters, a plausible pattern according to the substituent size was observed. […] Similarly, dimethyl amide 7c and nitrile 9 produced a 14- and 12-fold larger ratio of HMC compared to 1, respectively. Esters 6a–e and oxazoline 7e were also more prone to HMC formation than 1, albeit to a considerably lesser extent (2.5–6-fold).
# 3. Hydride Meisenheimer complex formation propensity assay
# The assay was performed as described previously. 6
# RAW 264.7 cell cultivation […]
# Samples were analyzed with a Thermo Vanquish Horizon UHPLC system (Thermo Fisher Scientific, Bremen, Germany) coupled to a Thermo Scientific QExactive Orbitrap mass spectrometer (Thermo Fisher Scientific, Bremen, Germany) by using a UPLC column (ACQUITY HSS T3, Waters, 1.8 µm particle size, 2.1 × 50 mm). […]
row,SMILES,HMC formation (in words)
1,C[C@H]1COC2(CCN(c3nc(=O)c4cc(C(=O)O)cc([N+](=O)[O-])c4s3)CC2)O1 [Compound 8],Traces
2,C[C@H]1COC2(CCN(c3nc(=O)c4cccc([N+](=O)[O-])c4s3)CC2)O1 [Compound 23],no detectable HMC formation
